In the NIST ThermoML archive (doi:10.1021/je0601457):
Numbers after ± are expanded uncertainties.

Assay: xn = mol fraction of the nth substance listed
Conditions: linear displacement

CC(=O)c1cnccn1 [2-acetylpyrazine] + O=C=O
Conditions | mass density [kg/m3]
294.75 K, Liquid, x1 = 0.007 | 799 ± 32
296.15 K, Liquid, x1 = 0.025 | 758 ± 30
302.35 K, Liquid, x1 = 0.025 | 790 ± 32
302.35 K, Liquid, x1 = 0.054 | 922 ± 37
303.35 K, Liquid, x1 = 0.007 | 724 ± 29
306.25 K, Liquid, x1 = 0.081 | 946 ± 38
309.45 K, Liquid, x1 = 0.138 | 1276 ± 53
310.35 K, Liquid, x1 = 0.054 | 837 ± 34
311.05 K, Liquid, x1 = 0.161 | 938 ± 38
312.75 K, Gas, x1 = 0.007 | 601 ± 24
312.95 K, Liquid, x1 = 0.114 | 1092 ± 44
313.15 K, Liquid, x1 = 0.194 | 954 ± 44
313.65 K, Gas, x1 = 0.081 | 911 ± 37
314.35 K, Liquid, x1 = 0.138 | 1258 ± 53
314.45 K, Gas, x1 = 0.025 | 815 ± 33
321.25 K, Gas, x1 = 0.054 | 785 ± 31
321.45 K, Liquid, x1 = 0.161 | 918 ± 41
321.95 K, Liquid, x1 = 0.194 | 939 ± 38
322.05 K, Liquid, x1 = 0.295 | 1090 ± 45
322.25 K, Liquid, x1 = 0.138 | 1238 ± 50
323.05 K, Liquid, x1 = 0.114 | 1061 ± 46
332.55 K, Liquid, x1 = 0.448 | 1063 ± 43
332.75 K, Liquid, x1 = 0.138 | 1216 ± 50
332.85 K, Gas, x1 = 0.054 | 739 ± 30
333.45 K, Liquid, x1 = 0.194 | 920 ± 37
333.45 K, Liquid, x1 = 0.295 | 1014 ± 41
334.45 K, Gas, x1 = 0.081 | 856 ± 35
334.95 K, Liquid, x1 = 0.114 | 1023 ± 41
337.95 K, Liquid, x1 = 0.161 | 887 ± 36
340.45 K, Gas, x1 = 0.025 | 718 ± 29
343.75 K, Liquid, x1 = 0.295 | 998 ± 40
345.75 K, Liquid, x1 = 0.138 | 1187 ± 48
346.35 K, Liquid, x1 = 0.944 | 1013 ± 41
348.05 K, Liquid, x1 = 0.448 | 1037 ± 41
348.55 K, Liquid, x1 = 0.114 | 993 ± 40
348.75 K, Gas, x1 = 0.054 | 702 ± 28
351.15 K, Liquid, x1 = 0.194 | 892 ± 36
353.55 K, Gas, x1 = 0.081 | 807 ± 33
353.75 K, Liquid, x1 = 0.161 | 863 ± 36
356.05 K, Liquid, x1 = 0.295 | 979 ± 40
360.95 K, Liquid, x1 = 0.944 | 996 ± 40
363.05 K, Liquid, x1 = 0.138 | 1148 ± 46
364.85 K, Liquid, x1 = 0.114 | 945 ± 38
366.25 K, Liquid, x1 = 0.448 | 1007 ± 40
367.85 K, Liquid, x1 = 0.194 | 861 ± 35
368.75 K, Liquid, x1 = 0.295 | 956 ± 39
368.85 K, Gas, x1 = 0.025 | 628 ± 25
369.55 K, Gas, x1 = 0.081 | 772 ± 32
370.85 K, Liquid, x1 = 0.161 | 832 ± 34
371.05 K, Liquid, x1 = 0.944 | 992 ± 40
371.25 K, Gas, x1 = 0.054 | 648 ± 26
